# Data published in publication PMC10743086, “Immunofluorescence-Based Assay for High-Throughput Analysis of Multidrug Resistance Markers in Non-Small Cell Lung Carcinoma Patient-Derived Cells” (Diagnostics, 2023).
# Experiments:
# Type in all cases: cell-based, human
# NCI-H460 cells = assay: Cytotoxicity by immunofluorescence cell scoring (cell counts), NSCLC cell line; details: Homo sapiens, NCI-H460, 24 h, 24 h treatment
# In short: (§1)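 Compounds added 48 h after seeding, then 24 h exposure. Cells fixed in 4% paraformaldehyde, BSA-blocked, co-stained for ABCB1 with CK8/18 to separate cancer from stromal cells; 4x automated imaging. Cytotoxicity from cell-count scoring; ABCB1 expression from multi-wavelength cell scoring.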
# NCI-H460/R cells = assay: Cytotoxicity by immunofluorescence cell scoring (cell counts), multidrug-resistant NSCLC cell line; details: for IC50: Homo sapiens, 24 h treatment
# In short: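 ABCB1-overexpressing NCI-H460/R cells, doxorubicin-selected, treated 48 h after seeding for 24 h. Cytotoxicity from automated imaging cell counts after fixation and CK8/18 plus MDR-marker immunostaining, using cell-scoring analysis.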
# MRC-5 cells = assay: Cytotoxicity by immunofluorescence cell scoring (cell counts), normal fibroblasts; details: Homo sapiens, MRC5, 24 h, 24 h treatment
# In short: as §1
# [1] = test system: ABCB1 expression in MRC-5 cells; assay: Immunofluorescence assay of MDR marker ABCB1 expression; details: five concentrations, 24 h
# In short: as §1
# [2] = test system: ABCB1 expression in NCI-H460 cells; assay: as above; details: five concentrations, 24 h
# In short: as §1
# [3] = test system: ABCB1 expression in NCI-H460/R cells; assay: as above; details: five concentrations, 24 h
# In short: as §1
# [4] = test system: Non-cancer cells (CK8/18-) of patient-derived NSCLC cultures; assay: Cytotoxicity in patient-derived NSCLC cultures, non-cancer cells; details: Homo sapiens, 168 h, 7 days treatment
# In short: (§2)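 First, tumour pieces are dissociated at 37 °C for 90 min and cultured at 37 °C, 5% CO2 until confluent. Then cells are seeded at 1000 per well and exposed to drugs for 7 days starting 72 h later. Finally, fixed cells are immunostained for CK8/18 plus ABCC1 or ABCG2.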
# [5] = test system: ABCC1 expression in cancer cells (CK8/18+); assay: Immunofluorescence assay of ABCC1 expression in patient-derived NSCLC cultures; details: 7 days
# In short: as §2
# [6] = NCI-H460 (co-culture with MRC-5)
# [7] = NCI-H460/R (co-culture with MRC-5)
# [8] = MRC-5 (co-culture with NCI-H460)
# [9] = MRC-5 (co-culture with NCI-H460/R)
structure (smiles),measurement,setting,value
CCC1=C[C@@H]2CN(C1)Cc1c([nH]c3ccccc13)[C@@](C(=O)OC)(c1cc3c(cc1OC)N(C)[C@H]1[C@@](O)(C(=O)OC)[C@H](OC(C)=O)[C@]4(CC)C=CCN5CC[C@]31[C@@H]54)C2 [Vinorelbine],IC50,NCI-H460 cells; [6],0.0333 µM
same,IC50,NCI-H460 cells; NCI-H460 monoculture,0.0366 µM
same,IC50,NCI-H460/R cells; [7],0.839 µM
same,IC50,NCI-H460/R cells; NCI-H460/R monoculture,0.99 µM
same,resistance of NCI-H460/R cells compared to the NCI-H460 cells,"NCI-H460/R cells; ratio of IC50 values, monocultures",27 fold
same,IC50,MRC-5 cells; [8],0.477 µM
same,IC50,MRC-5 cells; [9],> 1 µM
same,IC50,MRC-5 cells; MRC-5 monoculture,> 1 µM
same,ABCB1 Expression,[1]; [8],no change
same,ABCB1 Expression,[1]; [9],no change
same,ABCB1 Expression,[1]; MRC-5 monoculture,no change
same,ABCB1 Expression,[2]; [6],increase (An increase in ABCB1 expression of at least 20% at a minimum of one concentration is shown in the table.)
same,ABCB1 Expression,[2]; NCI-H460 monoculture,increase (An increase in ABCB1 expression of at least 20% at a minimum of one concentration is shown in the table.)
same,ABCB1 Expression,[3]; [7],no change
same,ABCB1 Expression,[3]; NCI-H460/R monoculture,no change
same,IC50,"[4]; culture TR58, non-cancer cells (CK8/18-)",0.16 µM
same,IC50,"[4]; culture TR64, non-cancer cells (CK8/18-)",0.184 µM
same,IC50,"[4]; culture TR65, non-cancer cells (CK8/18-)",0.0328 µM
same,IC50,"[4]; culture TR84, non-cancer cells (CK8/18-)",0.0339 µM
same,IC50,"[4]; culture TR87, non-cancer cells (CK8/18-)",0.361 µM
same,ABCC1 expression,"[5]; culture TR58, cancer cells (CK8/18+)",no change
same,ABCC1 expression,"[5]; culture TR64, cancer cells (CK8/18+)","increase (An increase in ABCB1, ABCC1, or ABCG2 expression of at least 20% at a minimum of one concentration is shown in the table.)"
same,ABCC1 expression,"[5]; culture TR65, cancer cells (CK8/18+)","increase (An increase in ABCB1, ABCC1, or ABCG2 expression of at least 20% at a minimum of one concentration is shown in the table.)"
same,ABCC1 expression,"[5]; culture TR84, cancer cells (CK8/18+)","increase (An increase in ABCB1, ABCC1, or ABCG2 expression of at least 20% at a minimum of one concentration is shown in the table.)"
same,ABCC1 expression,"[5]; culture TR87, cancer cells (CK8/18+)","increase (An increase in ABCB1, ABCC1, or ABCG2 expression of at least 20% at a minimum of one concentration is shown in the table.)"
